The source of these data is patent publication US7572785B2, “Substituted imidazoles as cannabinoid receptor modulators” (Merck & Co., Inc., priority 2001, dated 2009).

SMILES strings stand for the structures.

Turning to `Cn1c(C(=O)NC2CCCCC2)nc(-c2ccc(Cl)cc2Cl)c1-c1ccc(Cl)cc1`, the melting point amounted to 165 °C.
